This is an account of results in patent US20110288152A1, “PSMA BINDING LIGAND-LINKER CONJUGATES AND METHODS FOR USING” (Purdue Research Foundation, priority 2008, published 2011).

One may read the Ki as a measure of affinity in units of concentration, obtained from inhibition or displacement.

In assay [1] the target is T1, PSMA on LNCaP cells (Homo sapiens, UniProt Q04609).
T1 construct: LNCaP cells (a human prostate cancer cell line over-expressing PSMA); host or cells: LNCaP
As to the kind of experiment: Spacer-dependent binding studies of DUPA-Linker-99mTc compounds on LNCaP cells. As to conditions: 37° C., 1 hour, 0 nM-1280 nM, read-out: Kd from cell bound radioactivity versus concentration of DUPA-Linker-99Tc imaging agents. The method, then:
Cells were then incubated with increasing concentrations of SK60-99 mTc (zero atom spacer), SK62-99 mTc (7 atom spacer), SK28-99 mTc (14 atom spacer), SK38-99 mTc (16 atom spacer) and SK57-99 mTc (24 atom spacer) from 0 nM-1280 nM (triplicates for each concentration) in a 5%-CO2 atmosphere at 37° C. for 1 hour. Also, in separate plates, cells was incubated with 50 uM PMPA in a 5%-CO2 atmosphere at 37° C. for 30 minutes and then incubated with increasing concentration of SK60-99 mTc (zero atom spacer), SK62-99 mTc (7 atom spacer), SK28-99 mTc (14 atom spacer), SK38-99 mTc (16 atom spacer) and SK57-99 mTc (24 atom spacer) from 0 nM-1280 nM (triplicates for each concentration) in a 5%-CO2 atmosphere at 37° C. for 1 hour (competition studies; data not shown). […] The plot of cell bound radioactivity verses concentration of the radiolabeled compound was used to calculate the Kd value. The plot of % saturation verses concentration of the radiolabeled compound as well as the plot for Kd verses spacer length are shown (FIGS. 4 and 5).

Assay [2] addresses T1, PSMA on LNCaP cells. As to the kind of experiment: In vitro binding studies using LNCaP cells and SK28-99mTc, with and without excess PMPA. Conditions: 37° C., 1 hour, 0 nM-450 nM, read-out: Kd from cell bound radioactivity versus concentration. As to the method:
Cells of one 24-well plate were incubated with increasing concentrations of SK28-99 mTc from 0 nM-450 nM (triplicates for each concentration) in a 5%-CO2 atmosphere at 37° C. for 1 hour. Cells of the second 24-well plate were incubated with 50 uM PMPA in a 5%-CO2 atmosphere at 37° C. for 30 minutes, then incubated with increasing concentrations of SK28-99 mTc from 0 nM-450 nM (triplicates for each concentration) in a 5%-CO2 atmosphere at 37° C. for 1 hour (competition study). […] The competition study was used to determine the binding specificity of the ligand (DUPA) to the PSMA (FIG. 1).
LNCaP cells (150,000 cells/well) were seeded onto 24-well Falcon plates and allowed to form confluent monolayers over 48 h. Spent medium in each well was replaced with fresh medium (0.5 mL) containing increasing concentrations of DUPA-99 mTc in the presence (▴) or absence (▪) of excess PMPA. After incubating for 1 h at 37° C., cells were rinsed with culture medium (2×1.0 mL) and tris buffer (1×1.0 mL) to remove any unbound radioactivity. After suspending cells in tris buffer (0.5 mL), cell bound radioactivity was counted using a γ-counter (Packard, Packard Instrument Company). The dissociation constant (KD) was calculated using a plot of cell bound radioactivity versus the concentration of the radiotracer using nonlinear regression in GraphPad Prism 4. Error bars represent 1 standard deviation (n=3). […]

In assay [3] the target is T1, PSMA on LNCaP cells. As to the kind of experiment: Quantification of PSMA molecules on LNCaP cells (cell bound radioactivity at saturation). It counts as cell-based. As to conditions: for cell bound radioactivity at the saturation point: 1 hour. The method, then: Cells were then incubated with increasing concentrations of SK28-99 mTc from 0 nM-450 nM (triplicates for each concentration) in a 5%-CO2 atmosphere at 4° C. or at 37° C. for 1 hour. […] The radioactivity of a 30 nM sample of SK28-99 mTc (20 uL) was counted. At 4° C. (to prevent endocytosis of PSMA), the number of moles in the 30 nM sample=30 nM×20 uL=(30×10-9 mol/L)×(20×10-6 L)=6×10-13 mol. The number of atoms in the 30 nM sample=(6×10-13 mol)×(6.023×1023 atom/mol)=3.6×1011 atom. The radio count of 20 uL of the 30 nM sample=20477 cpm (cpm/atom=3.6×1011/20477=1.76×107). The cell bound radioactivity at the saturation point at 4° C.=12 000 cpm. The number of atoms at the saturation point=(1.76×107 atom)×(12 000 cpm). The number of cells/well=245,000.
The cell bound radioactivity at the saturation point at 37° C.=33,000 cpm (approximately three fold higher than at 4° C.).

The target in another assay is PSMA (Homo sapiens, UniProt Q04609). As to conditions: urea PSMA ligands of formula drawing 51, R^1 varied; cited from earlier work.

Starred links: 1 amine or outer side, 2 acyl side, 3 side chain; linkers in the order of their positions; H or OH if unused. Non-standard residues stand in square brackets, D forms with d. Residues, ends and D or L forms follow the SMILES beside them. Groups on a side chain read outwards from the residue. γGlu = O=C(O)[C@H](CCC(=O)[*:2])N[*:1]; Dap = NC[C@H](N)C(=O)O; Aoc = NCCCCCCCC(=O)O; CO = O=C([*:1])[*:2]

T1 sequence (Q04609 whole entry): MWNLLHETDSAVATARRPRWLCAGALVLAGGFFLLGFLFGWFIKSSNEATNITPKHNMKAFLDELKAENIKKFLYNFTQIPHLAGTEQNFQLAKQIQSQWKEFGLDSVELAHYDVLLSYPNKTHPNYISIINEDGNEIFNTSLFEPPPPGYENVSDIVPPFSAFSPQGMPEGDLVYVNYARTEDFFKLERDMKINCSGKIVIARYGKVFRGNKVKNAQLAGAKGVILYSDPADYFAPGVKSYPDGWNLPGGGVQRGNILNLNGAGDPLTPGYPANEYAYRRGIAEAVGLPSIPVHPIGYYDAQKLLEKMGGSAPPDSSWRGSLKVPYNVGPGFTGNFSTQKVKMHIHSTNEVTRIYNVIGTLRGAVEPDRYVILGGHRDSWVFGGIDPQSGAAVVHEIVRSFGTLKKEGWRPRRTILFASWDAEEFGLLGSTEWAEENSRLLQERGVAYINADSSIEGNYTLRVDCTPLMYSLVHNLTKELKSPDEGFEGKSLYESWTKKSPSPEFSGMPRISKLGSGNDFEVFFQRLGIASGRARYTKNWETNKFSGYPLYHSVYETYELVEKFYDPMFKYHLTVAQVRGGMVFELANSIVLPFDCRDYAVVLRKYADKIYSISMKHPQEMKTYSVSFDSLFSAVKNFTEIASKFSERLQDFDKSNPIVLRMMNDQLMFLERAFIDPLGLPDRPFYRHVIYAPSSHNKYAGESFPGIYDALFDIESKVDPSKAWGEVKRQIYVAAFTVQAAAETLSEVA
Chain of PSMA (Q04609 whole entry, species assumed): as the sequence (Q04609 whole entry) above

As for `N[C@@H](CNC(=O)[C@H](Cc1ccccc1)NC(=O)CC[C@H](NC(=O)CC[C@H](NC(=O)N[C@@H](CCC(=O)O)C(=O)O)C(=O)O)C(=O)O)C(=O)N[C@@H](CC(=O)O)C(=O)N[C@@H](CS)C(=O)O` [7-atom linker] (H-[Dap]([Phe-γGlu-γGlu-CO-Glu])-Asp-Cys-OH), the Kd on PSMA on LNCaP cells [1] came to 68 nM.
Consider `N[C@@H](CNC(=O)CC[C@H](NC(=O)[C@H](Cc1ccccc1)NC(=O)CCCCCCCNC(=O)CC[C@H](NC(=O)N[C@@H](CCC(=O)O)C(=O)O)C(=O)O)C(=O)O)C(=O)N[C@@H](CC(=O)O)C(=O)N[C@@H](CS)C(=O)O` [16-atom linker] (H-[Dap]([γGlu-Phe-Aoc-γGlu-CO-Glu])-Asp-Cys-OH), for which, at PSMA on LNCaP cells [1], the Kd was found to be 40 nM.
On to `N[C@@H](CNC(=O)[C@H](Cc1ccccc1)NC(=O)[C@H](Cc1ccccc1)NC(=O)CCCCCCCNC(=O)CC[C@H](NC(=O)N[C@@H](CCC(=O)O)C(=O)O)C(=O)O)C(=O)N[C@@H](CC(=O)O)C(=O)N[C@@H](CS)C(=O)O` [SK28-^99mTc, metal not drawn] (H-[Dap]([Phe-Phe-Aoc-γGlu-CO-Glu])-Asp-Cys-OH), for which the Kd worked out at 18.1 nM at PSMA on LNCaP cells [2] and 15 nM on PSMA on LNCaP cells [1]. Moreover, the “cell bound radioactivity at saturation, 37° C. relative to 4° C.” value at PSMA on LNCaP cells [3] is reported as “approximately three”. The “cell bound radioactivity at the saturation point” value at PSMA on LNCaP cells [3] (4° C.) was 12 000 cpm; on PSMA on LNCaP cells [3] (37° C.), 33,000 cpm.
Turning to `CC(C)(C)SCC(NC(=O)NC(CCC(=O)O)C(=O)O)C(=O)O` (stereo not shown) [drawing 52 (R = tert-Bu)], the Ki on PSMA was 29 nM.
Consider `N[C@@H](CNC(=O)CC[C@H](NC(=O)N[C@@H](CCC(=O)O)C(=O)O)C(=O)O)C(=O)N[C@@H](CC(=O)O)C(=O)N[C@@H](CS)C(=O)O` [0-atom linker] (H-[Dap]([γGlu-CO-Glu])-Asp-Cys-OH), for which, at PSMA on LNCaP cells [1], the Kd worked out at 171 nM.
As to `O=C(O)CCC(NC(=O)NC(CS)C(=O)O)C(=O)O` (stereo not shown) [drawing 52 (R = H)], on PSMA, the Ki was 6.9 nM.
